For 29 molecules, EC50 and IC50 results are on record in patent publication US11267825B2 (AICURIS GMBH & CO. KG, priority 2017, dated 2022).

In one experiment the test system is HBV. As to the kind of experiment: Determination of HBV DNA from the supernatants of HepAD38 cells (anti-HBV activity). The format is cell-based, hepatitis B virus. The conditions noted are these: Hepatitis B virus, 144 h; HBV DNA in HepAD38 supernatant at day 6; read-out: Cell Activity (EC50). The gist of the method: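 HepAD38 cells (60,000/well) were treated with half-log compound dilutions in tetracycline-free medium to induce HBV production. On day 6, HBV DNA was purified from filtered supernatant and quantified by real-time PCR against plasmid standards. EC50 values came from non-linear regression of relative copy numbers, typically from three experiments in triplicate.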

The next experiment has as its target HBV core protein (UniProt P03146). The format is biochemical. The conditions noted are these: read-out: Assembly Activity (IC50); BODIPY-FL labelled core protein, assembly started with NaCl, read after 6 min. The essentials:
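Fluorescence-quenching assembly assay using E. coli-expressed core protein 1–149 plus Cys150, labelled with BODIPY-FL maleimide, at 1.0–2.0 μM in 50 mM HEPES pH 7.5, 0.5% DMSO. Assembly started with NaCl to […]; fluorescence (ex 477/em 525 nm) read after 6 min. EC50 by non-linear regression, 8-point 0.5-log dilutions.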

Each structure is given as a SMILES string. A value given as a limit tells only on which side of the number the result lay.

HBV core protein, sequence (P03146 whole entry, looked up): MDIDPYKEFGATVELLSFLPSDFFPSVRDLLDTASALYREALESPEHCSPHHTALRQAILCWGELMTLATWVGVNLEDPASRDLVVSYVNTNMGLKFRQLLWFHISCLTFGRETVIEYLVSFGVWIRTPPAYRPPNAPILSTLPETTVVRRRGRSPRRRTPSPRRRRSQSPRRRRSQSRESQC

`O=C(c1cc2ccccc2[nH]1)N1CCc2nc(NC3(c4ccccc4)CC3)sc2C1` [Example 419, 5-(1H-indole-2-carbonyl)-N-(1-phenylcyclopropyl)-4H,5H,6H,7H-[1,3]thiazolo[5,4-c]pyridin-2-amine]: the EC50 (as a rule, the concentration that produces a half-maximal response) in the experiment on HBV is less than 1 µM. For the same molecule, the concentration for half-maximal inhibition (IC50) (usually the point on the concentration scale where inhibition reaches its midpoint) at HBV core protein is 5 to 10 µM.
On the same counts, the results for `O=C(c1cc2c(F)c(F)ccc2[nH]1)N1CCc2nc(NCC3(CO)CC3)sc2C1` [Example 252, [1-({[5-(4,5-difluoro-1H-indole-2-carbonyl)-4H,5H,6H,7H-[1,3]thiazolo[5,4-c]pyridin-2-yl]amino}methyl)cyclopropyl]methanol] are less than 1 µM and less than 5 µM.
Consider `CCc1cc(F)cc2[nH]c(C(=O)N3CCc4nc(NCC5(CO)CC5)sc4C3)cc12` [Example 248, [1-({[5-(4-ethyl-6-fluoro-1H-indole-2-carbonyl)-4H,5H,6H,7H-[1,3]thiazolo[5,4-c]pyridin-2-yl]amino}methyl)cyclopropyl]methanol], for which, in the experiment on HBV, the EC50 was less than 1 µM. Also, the half-inhibitory concentration (IC50) at HBV core protein is less than 5 µM.
Regarding `CCNC(=O)C1(CNc2nc3c(s2)CN(C(=O)c2cc4ccccc4[nH]2)CC3)CCC1` [Example 417, N-ethyl-1-({[5-(1H-indole-2-carbonyl)-4H,5H,6H,7H-[1,3]thiazolo[5,4-c]pyridin-2-yl]amino}methyl)cyclobutane-1-carboxamide], the EC50 in the experiment with HBV is less than 1 µM. Further, at HBV core protein, the IC50 is less than 5 µM.
On the same counts, the results for `CC(F)(F)c1cc(F)cc2[nH]c(C(=O)N3CCc4nc(NCC5CCOC5)sc4C3)cc12` (stereo not shown) [Example 327, 5-[4-(1,1-difluoroethyl)-6-fluoro-1H-indole-2-carbonyl]-N-[(oxolan-3-yl)methyl]-4H,5H,6H,7H-[1,3]thiazolo[5,4-c]pyridin-2-amine] are less than 1 µM and less than 5 µM.
For the molecule `Nc1nc2c(s1)CN(C(=O)c1cc3c(Cl)cccc3[nH]1)CC2` [Example 210, 5-(4-chloro-1H-indole-2-carbonyl)-4H,5H,6H,7H-[1,3]thiazolo[5,4-c]pyridin-2-amine], the 50% effective concentration (EC50) in the experiment on HBV was less than 1 µM. On HBV core protein, the IC50 is less than 5 µM.
On the same counts, the results for `O=C(c1cc2c(C(F)F)cccc2[nH]1)N1CCc2nc(NCC3CCOC3)sc2C1` (stereo not shown) [Example 325, 5-[4-(difluoromethyl)-1H-indole-2-carbonyl]-N-[(oxolan-3-yl)methyl]-4H,5H,6H,7H-[1,3]thiazolo[5,4-c]pyridin-2-amine] are less than 1 µM and less than 5 µM.
Taken in the same sequence, the figures for `Cc1cccc2[nH]c(C(=O)N3CCc4nc(N(C)C)sc4C3)cc12` [Example 88, N,N-dimethyl-5-(4-methyl-1H-indole-2-carbonyl)-4H,5H,6H,7H-[1,3]thiazolo[5,4-c]pyridin-2-amine] were 1 to 10 µM and less than 100 µM.
As for `O=C(CC(F)(F)F)Nc1nc2c(s1)CN(C(=O)c1cc3ccccc3[nH]1)CC2` [Example 61, 3,3,3-trifluoro-N-[5-(1H-indole-2-carbonyl)-4H,5H,6H,7H-[1,3]thiazolo[5,4-c]pyridin-2-yl]propanamide], the EC50 in the experiment with HBV was less than 1 µM. Also, the IC50 at HBV core protein was 5 to 10 µM.
With `Nc1nc2c(s1)CN(C(=O)c1cc3c(F)cc(F)c(F)c3[nH]1)CC2` [Example 84, 5-(4,6,7-trifluoro-1H-indole-2-carbonyl)-4H,5H,6H,7H-[1,3]thiazolo[5,4-c]pyridin-2-amine], the EC50 with HBV is less than 1 µM. The IC50 on HBV core protein is less than 5 µM.
Turning to `CC(C)(C)NC(=O)Nc1nc2c(s1)CN(C(=O)c1cc3c(Cl)cc(F)cc3[nH]1)CC2` [Example 265, 3-tert-butyl-1-[5-(4-chloro-6-fluoro-1H-indole-2-carbonyl)-4H,5H,6H,7H-[1,3]thiazolo[5,4-c]pyridin-2-yl]urea], in the experiment on HBV, the EC50 was less than 1 µM. Besides, at HBV core protein, the half-maximal inhibitory concentration (IC50) was less than 100 µM.
On the same counts, the results for `O=C(c1cc2ccc(Br)cc2[nH]1)N1CCc2nc(NCC3CCOC3)sc2C1` (stereo not shown) [Example 113, 5-(6-bromo-1H-indole-2-carbonyl)-N-[(oxolan-3-yl)methyl]-4H,5H,6H,7H-[1,3]thiazolo[5,4-c]pyridin-2-amine] are less than 1 µM and less than 5 µM.
On the same counts, the results for `Nc1nc2c(s1)CN(C(=O)c1cc3c([N+](=O)[O-])cccc3[nH]1)CC2` [Example 145, 5-(4-nitro-1H-indole-2-carbonyl)-4H,5H,6H,7H-[1,3]thiazolo[5,4-c]pyridin-2-amine] are less than 1 µM and less than 5 µM.
Take `O=C(c1cc2ccccc2[nH]1)N1CCc2nc(NCC3CCCO3)sc2C1` (stereo not shown) [Example 72, 5-(1H-indole-2-carbonyl)-N-[(oxolan-2-yl)methyl]-4H,5H,6H,7H-[1,3]thiazolo[5,4-c]pyridin-2-amine]: the EC50 in the experiment with HBV was less than 1 µM. Further, the IC50 at HBV core protein was less than 5 µM.
On the same counts, the results for `O=C(c1cc2c(Cl)c(F)ccc2[nH]1)N1CCc2nc(NCC3(O)CCC3)sc2C1` [Example 362, 1-({[5-(4-chloro-5-fluoro-1H-indole-2-carbonyl)-4H,5H,6H,7H-[1,3]thiazolo[5,4-c]pyridin-2-yl]amino}methyl)cyclobutan-1-ol] are less than 1 µM and less than 5 µM.
On to `CCc1cccc2[nH]c(C(=O)N3CCc4nc(NC(=O)C5(C)CC5)sc4C3)cc12` [Example 333, N-[5-(4-ethyl-1H-indole-2-carbonyl)-4H,5H,6H,7H-[1,3]thiazolo[5,4-c]pyridin-2-yl]-1-methylcyclopropane-1-carboxamide], for which, in the experiment on HBV, the EC50 was less than 1 µM. Further, the IC50 on HBV core protein was less than 5 µM.
With `COCCC(=O)Nc1nc2c(s1)CN(C(=O)c1cc3ccccc3[nH]1)CC2` [Example 19, N-[5-(1H-indole-2-carbonyl)-4H,5H,6H,7H-[1,3]thiazolo[5,4-c]pyridin-2-yl]-3-methoxypropanamide], in the experiment on HBV, the EC50 is less than 1 µM. Besides, the IC50 on HBV core protein is less than 5 µM.
On the same counts, the results for `NCCNc1nc2c(s1)CN(C(=O)c1cc3ccccc3[nH]1)CC2` [Example 179, N1-[5-(1H-indole-2-carbonyl)-4H,5H,6H,7H-[1,3]thiazolo[5,4-c]pyridin-2-yl]ethane-1,2-diamine] are 1 to 10 µM and 5 to 10 µM.
As for `NC(=O)CNc1nc2c(s1)CN(C(=O)c1cc3ccccc3[nH]1)CC2` [Example 278, 2-{[5-(1H-indole-2-carbonyl)-4H,5H,6H,7H-[1,3]thiazolo[5,4-c]pyridin-2-yl]amino}acetamide], in the experiment with HBV, the EC50 is 1 to 10 µM. The IC50 at HBV core protein was less than 100 µM.
On the same counts, the results for `CCOc1nc2c(s1)CN(C(=O)c1cc3ccccc3[nH]1)CC2` [Example 152, 2-{2-ethoxy-4H,5H,6H,7H-[1,3]thiazolo[5,4-c]pyridine-5-carbonyl}-1H-indole] are 1 to 10 µM and less than 100 µM.
On to `O=C(c1cc2ccccc2[nH]1)N1CCc2nc(N3CC4COCCN4C3)sc2C1` (stereo not shown) [Example 295, 2-(2-{hexahydro-1H-imidazo[4,3-c][1,4]oxazin-2-yl}-4H,5H,6H,7H-[1,3]thiazolo[5,4-c]pyridine-5-carbonyl)-1H-indole], for which the EC50 in the experiment with HBV is 1 to 10 µM. In addition, at HBV core protein, the IC50 is less than 100 µM.
As to `O=C1CC(C(=O)Nc2nc3c(s2)CN(C(=O)c2cc4ccccc4[nH]2)CC3)CCN1` (stereo not shown) [Example 412, N-[5-(1H-indole-2-carbonyl)-4H,5H,6H,7H-[1,3]thiazolo[5,4-c]pyridin-2-yl]-2-oxopiperidine-4-carboxamide], in the experiment with HBV, the EC50 is less than 1 µM. Moreover, the IC50 at HBV core protein is less than 5 µM.
On the same counts, the results for `NC(=O)c1nc2c(s1)CN(C(=O)c1cc3ccccc3[nH]1)CC2` [Example 201, 5-(1H-indole-2-carbonyl)-4H,5H,6H,7H-[1,3]thiazolo[5,4-c]pyridine-2-carboxamide] are 1 to 10 µM and less than 100 µM.
On the same counts, the results for `Cc1nc2c(s1)CN(C(=O)c1cc3cccc(Cl)c3[nH]1)CC2` [Example 189, 7-chloro-2-{2-methyl-4H,5H,6H,7H-[1,3]thiazolo[5,4-c]pyridine-5-carbonyl}-1H-indole] are 1 to 10 µM and 5 to 10 µM.
For `Cc1nc2c(s1)CN(C(=O)c1cc3c(C)cc(F)cc3[nH]1)CC2` [Example 190, 6-fluoro-4-methyl-2-{2-methyl-4H,5H,6H,7H-[1,3]thiazolo[5,4-c]pyridine-5-carbonyl}-1H-indole], the EC50 with HBV was less than 1 µM. Further, the IC50 at HBV core protein was less than 5 µM.
With `O=C(c1cc2ccccc2[nH]1)N1CCc2nc(NC3CCC(O)CC3)sc2C1` (stereo not shown) [Example 67, 4-{[5-(1H-indole-2-carbonyl)-4H,5H,6H,7H-[1,3]thiazolo[5,4-c]pyridin-2-yl]amino}cyclohexan-1-ol], the EC50 in the experiment with HBV is less than 1 µM. Moreover, at HBV core protein, the IC50 is less than 5 µM.
On the same counts, the results for `O=C(c1cc2c(F)cc(F)cc2[nH]1)N1CCc2nc(NC3(CO)CCC3)sc2C1` [Example 218, (1-{[5-(4,6-difluoro-1H-indole-2-carbonyl)-4H,5H,6H,7H-[1,3]thiazolo[5,4-c]pyridin-2-yl]amino}cyclobutyl)methanol] are less than 1 µM and 5 to 10 µM.
For the molecule `O=C(c1cc2ccccc2[nH]1)N1CCc2nc(-c3ncccn3)sc2C1` [Example 202, 2-[2-(pyrimidin-2-yl)-4H,5H,6H,7H-[1,3]thiazolo[5,4-c]pyridine-5-carbonyl]-1H-indole], the EC50 with HBV lay within 1 to 10 µM. Besides, the IC50 on HBV core protein lay within 5 to 10 µM.
Take `O=C(c1cc2c(C(F)F)cccc2[nH]1)N1CCc2nc(NCC3(O)CCC3)sc2C1` [Example 408, 1-[({5-[4-(difluoromethyl)-1H-indole-2-carbonyl]-4H,5H,6H,7H-[1,3]thiazolo[5,4-c]pyridin-2-yl}amino)methyl]cyclobutan-1-ol]: in the experiment with HBV, the concentration giving a half-maximal response (EC50) was less than 1 µM. The IC50 at HBV core protein was less than 5 µM.
